Columns and labels:
[1] = target: T1, PPARγ (Homo sapiens, UniProt P37231); assay: GAL4-PPARγ-LBD luciferase assay in HepG2 cells; type: cell-based; settings: 1 μM to 1000 μM
T1 construct: GAL4-PPARδ-LBD plasmid+UAS-Luciferase and GAL4-PPARα-LBD plasmid+UAS-Luciferase; expressed in transfected cells; host or cells: HepG2
From the text: (§1) We used a reporter gene assay in HepG2 cells to screen for agonists of the peroxisome proliferator-activated receptors. Peroxisome proliferator-activated receptors (PPARs) and other members of the nuclear hormone receptor family are important drug targets for the treatment of metabolic diseases. PPARs play crucial roles in lipid and glucose metabolism, respectively. Therefore, screening methods that help to rapidly identify activators of these receptors should be of considerable value. INV-75 activated a classic PPARα gene, Acetyl-CoA Oxidase (ACO) in a dose dependent and time dependent fashion (FIG. 6A). The time course experiment was performed in presence of INV-75 up to 15 hours. […] We next tested the specificity of INV-75 for PPARα by performing experiments in HepG2 cells transfected with yeast GAL4-PPARα-LBD plasmid+UAS-Luciferase; GAL4-PPARδ-LBD plasmid+UAS-Luciferase and […]. The PPARα, PPARδ and PPARγ binding assays were performed using multiple concentrations of INV-75 (1 μM, 10 μM, 100 μM and 1000 μM). The level of luciferase activity corresponded to the degree of PPAR activation. The results were compared with classic PPAR agonists such as WY-14643 (PPARα agonist), Bezafibrate (PPARδ agonist) and Rosiglitazone ([…]).

[2] = target: T2, PPARα (Homo sapiens, UniProt Q07869); assay: GAL4-PPARα-LBD luciferase assay in HepG2 cells; type: cell-based
T2 construct: HepG2 cells transfected with yeast GAL4-PPARα-LBD plasmid+UAS-Luciferase; expressed in transfected cells; host or cells: HepG2
T2 sequence (Q07869 239-466 limits assumed): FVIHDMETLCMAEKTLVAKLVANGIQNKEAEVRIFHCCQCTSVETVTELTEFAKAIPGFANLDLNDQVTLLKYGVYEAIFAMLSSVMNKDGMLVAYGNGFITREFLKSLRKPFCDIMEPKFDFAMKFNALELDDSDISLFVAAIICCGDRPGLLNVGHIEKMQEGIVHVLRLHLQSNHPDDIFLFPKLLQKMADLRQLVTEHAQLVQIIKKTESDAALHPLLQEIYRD
From the text: as §1

[3] = test system: Watanabe Heritable Hyperlipidemic Rabbits (WHHL); assay: Blood lipid profile in WHHL rabbits; type: in vivo, rabbit; settings: end of treatment
Procedure: Hypercholesterolemia and oxidative stress occupy an important function in the progress of atherosclerosis. Lipids (cholesterol and LDL) in the blood were evaluated by analyzing the blood samples both at the baseline and the end point measurements. 1 ml of blood from an ear lobe vein was placed into K EDTA tubes at a start of high cholesterol diet and again at the time of sacrifice. All values were expressed as mean±SD. The bar graph of each group for total cholesterol and LDL cholesterol at baseline prior to the initiation of high fat chow, following high fat chow but before intervention and at the end of intervention with INV-75 and control are presented. (FIG. 14 A and FIG. 14B). […] The lack of effect may relate to the genetic model (WHHL) which has extremely high lipid values and a mutation in the LDL receptor. Since INV 75 is believed to function by increasing LDL clearance through an increase in LDL receptor expression, the lack of effect on LDL cholesterol and total cholesterol (major lipoprotein fraction in this model at baseline and in response to high fat chow feeding) is understandable.

[4] = test system: Watanabe Heritable Hyperlipidemic Rabbits (WHHL); assay: Quantitative RT-PCR of genes in thoracic aorta of WHHL rabbits; type: in vivo, rabbit
Procedure: Total RNA was isolated with TRIzol reagent (Invitrogen). Four microgram of total RNA was reverse transcribed by random hexamers and ThermoScript RT-PCR System (Invitrogen). Quantitative real-time PCR was performed with the Stratagene Mx3005 using SYBER Green PCR Master Mix (Applied Biosystems, Foster City, Calif.). Relative expression level compared to GAPDH was obtained. The primers used in the experiment are depicted in the table below and were purchased from Invitrogen.

[5] = target: T3, PPARδ (Homo sapiens, UniProt Q03181); assay: GAL4-PPARδ-LBD luciferase assay in HepG2 cells; type: cell-based; settings: 1 μM to 1000 μM
T3 construct: GAL4-PPARδ-LBD plasmid+UAS-Luciferase; expressed in transfected cells; host or cells: HepG2
T3 sequence (Q03181 211-439 limits assumed, species assumed): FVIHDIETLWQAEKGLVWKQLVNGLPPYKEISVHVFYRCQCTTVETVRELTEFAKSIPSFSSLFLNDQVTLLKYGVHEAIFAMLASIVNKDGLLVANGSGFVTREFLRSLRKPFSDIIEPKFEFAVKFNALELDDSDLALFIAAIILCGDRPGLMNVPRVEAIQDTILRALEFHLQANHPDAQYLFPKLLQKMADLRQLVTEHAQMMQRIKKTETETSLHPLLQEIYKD
From the text: as §1

[6] = test system: Individuals; assay: Treatment of inflammatory arthritis (Example 26); type: in vivo, human; settings: oral, 6 months
From the text: Individuals with rheumatoid arthritis, psoriatic arthritis and systemic lupus erythematosis suffer from recurrent bouts of inflammatory arthritis. They are usually on treatments such as non-steroidal agents such as cyclooxygenase inhibitors, anti-TNFα treatments and other types of immunotherapy. In addition to these treatments they will also receive an acceptable dose of a composition comprising a compound of the present invention in an acceptable carrier orally chronically for durations in excess of 6 months. In one study, 3,4-methylenedioxy-6-nitrophenyl acetate (INV 75) is administered to these individuals. The patients undergo an assessment of joint pains and inflammatory markers such as C-reactive protein (CRP) and erythrocyte sedimentation rate.

[7] = test system: New Zealand White rabbits; assay: Oil Red O staining of abdominal aorta of NZW rabbits; type: in vivo, rabbit
Procedure: Animal Model: 15 male New Zealand White rabbits (Charles River, Mass.) were fed with high fat diet (HFD) (Harlan Teklad rabbit diet with 0.5% cholesterol, TD 87251). After 4 weeks of high fat diet, rabbits were randomized into three different treatment groups, normal control (n=5), lipoic acid (100 mg/kg/day) (n=5), INV 70-65 (100 mg/kg/day) (n=5). These drugs were administered to the animals via their chow by mixing the drugs with the high fat diet. A fixed amount of chow and drugs admixed in the chow were fed to all animals every day after carefully calculating food intake in each rabbit. Drugs were dissolved in 100% ethanol and sprayed onto the diet and kept under vacuum to let ethanol evaporate overnight. Two (2) weeks after drug or control admixed HFD, all rabbits underwent aortic balloon denudation surgeries followed by 12 weeks of continued administration of drug or controls admixed with HFD. FIG. 29 provides an outline of the experimental design.
Hypercholesterolemia and oxidative stress play an important role in the development of atherosclerosis. The rabbits were sacrificed and abdominal aortas were fixed in 4% PFA (paraformaldehyde). The lipid deposition in the aortic wall was then visualized by oil red staining.

T1 sequence (P37231 238-503 limits assumed, species assumed): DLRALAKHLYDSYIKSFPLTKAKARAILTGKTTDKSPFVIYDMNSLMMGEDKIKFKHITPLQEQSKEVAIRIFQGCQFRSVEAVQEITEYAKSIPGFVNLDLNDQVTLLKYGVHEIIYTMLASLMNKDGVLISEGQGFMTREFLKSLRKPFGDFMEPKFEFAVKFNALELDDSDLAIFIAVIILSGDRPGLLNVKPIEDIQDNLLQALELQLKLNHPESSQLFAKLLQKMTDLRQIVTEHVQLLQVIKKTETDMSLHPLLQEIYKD

SMILES | effects on PPARγ [1] | agonist properties on PPARα activation [2] | PPARα ligand binding activity ([2]; 1 μM to 1000 μM) | LDL cholesterol [3] | total cholesterol [3] | mRNA expression of ICAM-1 ([4]; WHHL thoracic aorta) | mRNA expression of L-selectin ([4]; WHHL thoracic aorta) | mRNA expression of MCP-1 ([4]; WHHL thoracic aorta) | mRNA expression of VCAM-1 ([4]; WHHL thoracic aorta) | mRNA expression of the angiotensin II Type I receptor ([4]; WHHL, data not shown) | effects on PPARδ [5] | joint pains and markers of inflammation [6] | reduction in lipid deposition in the aortic wall compared to controls ([7]; NZW) | reduction in lipid deposition in the aortic wall compared to lipoic acid ([7]; NZW) | lipid content in the plaque area (Oil Red O) compared to the control group ([7]; NZW abdominal aorta)
CC(=O)Oc1cc2c(cc1[N+](=O)[O-])OCO2 [INV-75, 3,4-methylenedioxy-6-nitrophenyl acetate] | without effects | selective but partial agonist | increased | no differences | no differences | decreased | decreased | decreased | decreased | decreased | without effects | marked improvement | – | – | –
O=C(CCCCC1CCSS1)Oc1ccc2c(c1)OCO2 (stereo not drawn) [INV-7065, 3,4-Methylenedioxy phenyl lipoate] | – | – | – | – | – | – | – | – | – | – | – | – | about 80% | about 40% | reduction

Reference: patent US8198317B2, “Methylenedioxy phenolic compounds and their use to treat disease” (The Ohio State University Research Foundation, priority 2008, dated 2012)
